# In patent US9346815B2, “5-chloro-2-difluoromethoxyphenyl pyrazolopyrimidine compounds, compositions and methods of use thereof” (Genentech, Inc., priority 2014, dated 2016):
# pEC50, pKi: −log10 of the molar value.
# Tests used:
# [1] = molecular target: isolated recombinant JAK2 kinase domain (Homo sapiens (Human), UniProt O60674); experiment: JAK2 enzyme assay (Caliper LabChip, peptide phosphorylation); format: biochemical; conditions: 25 μM ATP
# [2] = system: JAK1-dependent STAT6 phosphorylation downstream of IL-13 stimulation in TF-1 human erythroleukemia cells; experiment: JAK1 pathway assay in TF-1 cells (IL-13-pSTAT6, MSD); format: cell-based; conditions: Homo sapiens, TF-1, TF-1 cells, read-out: IL13-pSTAT6 EC50_TF-1
# Description: JAK1 Pathway Assay in Cell Lines was Carried Out as Follows:
# Inhibitor potency (EC50) was determined in cell-based assays designed to measure JAK1 dependent STAT phosphorylation.
# In one assay approach, TF-1 human erythroleukemia cells obtained from the American Type Culture Collection (ATCC; Manassas, Va.) were used to measure JAK1-dependent STAT6 phosphorylation downstream of IL-13 stimulation. Prior to use in the assays, TF-1 cells were starved of GM-CSF overnight in OptiMEM medium (Life Technologies, Grand Island, N.Y.) supplemented with 0.5% charcoal/dextran stripped fetal bovine serum (FBS), 0.1 mM non-essential amino acids (NEAA), and 1 mM sodium pyruvate. The assays were run in 384-well plates in serum-free OptiMEM medium using 300,000 cells per well. In a second assay approach, BEAS-2B human bronchial epithelial cells obtained from ATCC were plated at 100,000 cells per well of a 96-well plate one day prior to the experiment. The BEAS-2B assay was run in complete growth medium (bronchial epithelial basal medium plus bulletkit; Lonza; Basel, Switzerland).
# Test compounds were serially diluted 1:2 in DMSO and then diluted 1:50 in medium just before use. Diluted compounds were added to the cells, for a final DMSO concentration of 0.2%, and incubated for 30 min (for the TF-1 assay) or 1 hr (for the BEAS-2B assay) at 37° C. Then, cells were stimulated with human recombinant cytokine at their respective EC90 concentrations, as previously determined for each individual lot. Cells were stimulated with IL-13 (R&D Systems, Minneapolis, Minn.) for 15 min at 37° C. The TF-1 cell reactions were stopped by the direct addition of 10× lysis buffer (Cell Signaling Technologies, Danvers, Mass.), whereas the BEAS-2B cell incubations were halted by the removal of medium and addition of 1× lysis buffer. The resultant samples were frozen in the plates at −80° C. Compound mediated inhibition of STAT6 phosphorylation was measured in the cell lysates using MesoScale Discovery (MSD) technology (Gaithersburg, Md.).
# [3] = molecular target: isolated recombinant JAK1 kinase domain (Homo sapiens (Human), UniProt P23458); experiment: JAK1 enzyme assay (Caliper LabChip, peptide phosphorylation); format: biochemical; conditions: isolated recombinant JAK1 kinase domain, 25 μM ATP
# Chain of isolated recombinant JAK1 kinase domain (P23458 875-1153): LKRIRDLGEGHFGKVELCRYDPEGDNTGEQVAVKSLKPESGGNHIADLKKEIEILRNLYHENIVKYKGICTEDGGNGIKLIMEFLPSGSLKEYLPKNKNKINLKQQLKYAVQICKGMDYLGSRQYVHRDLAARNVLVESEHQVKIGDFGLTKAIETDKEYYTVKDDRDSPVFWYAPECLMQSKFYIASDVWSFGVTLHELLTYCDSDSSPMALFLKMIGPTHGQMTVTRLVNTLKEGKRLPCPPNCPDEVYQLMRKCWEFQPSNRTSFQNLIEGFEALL
# Chain of isolated recombinant JAK2 kinase domain (O60674 849-1124): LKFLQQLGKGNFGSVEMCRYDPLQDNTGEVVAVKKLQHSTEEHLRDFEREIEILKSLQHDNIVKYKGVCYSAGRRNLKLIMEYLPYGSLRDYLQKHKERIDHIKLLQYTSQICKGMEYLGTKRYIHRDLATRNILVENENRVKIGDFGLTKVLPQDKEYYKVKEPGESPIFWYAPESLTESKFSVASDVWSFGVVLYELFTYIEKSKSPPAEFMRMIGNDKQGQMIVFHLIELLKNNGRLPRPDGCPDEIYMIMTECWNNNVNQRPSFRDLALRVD
Structure (SMILES),pKi [1],pEC50 [2],pKi [3]
"CN(C)C(=O)N1CCC(CN2C[C@@H]3CN(C(=O)Cn4cc(NC(=O)c5cnn6cccnc56)c(-c5cc(Cl)ccc5OC(F)F)n4)C[C@@H]3C2)CC1 [Example 36, N-[1-[2-[(3aR,6aS)-2-[[1-(dimethylcarbamoyl)-4-piperidyl]methyl]-1,3,3a,4,6,6a-hexahydropyrrolo[3,4-c]pyrrol-5-yl]-2-oxo-ethyl]-3-[5-chloro-2-(difluoromethoxy)phenyl]pyrazol-4-yl]pyrazolo[1,5-a]pyrimidine-3-carboxamide]",9.21,7.24,
"CN1CC2(CCN(C(=O)Cn3cc(NC(=O)c4cnn5cccnc45)c(-c4cc(Cl)ccc4OC(F)F)n3)CC2)C1 [Example 218, N-[3-[5-chloro-2-(difluoromethoxy)phenyl]-1-[2-(2-methyl-2,7-diazaspiro[3.5]nonan-7-yl)-2-oxo-ethyl]pyrazol-4-yl]pyrazolo[1,5-a]pyrimidine-3-carboxamide]",,7.12,9.00
"CN1CC2(CCN(C(=O)Cn3cc(NC(=O)c4cnn5cccnc45)c(-c4cc(Cl)ccc4OC(F)F)n3)C2)C1 [Example 221, N-[3-[5-chloro-2-(difluoromethoxy)phenyl]-1-[2-(2-methyl-2,6-diazaspiro[3.4]octan-6-yl)-2-oxo-ethyl]pyrazol-4-yl]pyrazolo[1,5-a]pyrimidine-3-carboxamide]",,6.88,9.04
"CN(C)C1CCN(C(=O)C2CCN(c3nc(-c4cc(Cl)ccc4OC(F)F)c(NC(=O)c4cnn5cccnc45)s3)CC2)CC1 [Example 197, N-[4-[5-chloro-2-(difluoromethoxy)phenyl]-2-[4-[4-(dimethylamino)piperidine-1-carbonyl]-1-piperidyl]thiazol-5-yl]pyrazolo[1,5-a]pyrimidine-3-carboxamide]",,8.21,
"O=C(Nc1sc(CN2CCCCC2)nc1-c1cc(Cl)ccc1OC(F)F)c1cnn2cccnc12 [Example 263, N-[4-[5-chloro-2-(difluoromethoxy)phenyl]-2-(1-piperidylmethyl)thiazol-5-yl]pyrazolo[1,5-a]pyrimidine-3-carboxamide]",,7.72,8.82
"Nc1nn2cccnc2c1C(=O)Nc1cn(C2CCCNCC2)nc1-c1cc(Cl)ccc1OC(F)F (stereo not shown) [Example 171, 2-amino-N-[1-(azepan-4-yl)-3-[5-chloro-2-(difluoromethoxy)phenyl]pyrazol-4-yl]pyrazolo[1,5-a]pyrimidine-3-carboxamide]",9.77,7.66,
"CN1CCC2CN(C(=O)Cn3cc(NC(=O)c4c(N)nn5cccnc45)c(-c4cc(Cl)ccc4OC(F)F)n3)CCC21 (stereo not shown) [Example 56, 2-amino-N-[3-[5-chloro-2-(difluoromethoxy)phenyl]-1-[2-(1-methyl-3,3a,4,6,7,7a-hexahydro-2H-pyrrolo[3,2-c]pyridin-5-yl)-2-oxo-ethyl]pyrazol-4-yl]pyrazolo[1,5-a]pyrimidine-3-carboxamide]",,8.16,9.13
"O=C(Nc1cn(CC(=O)N2CCC(NCCc3ccc(C(F)(F)F)cc3)CC2)nc1-c1cc(Cl)ccc1OC(F)F)c1cnn2cccnc12 [Example 93, N-[3-[5-chloro-2-(difluoromethoxy)phenyl]-1-[2-oxo-2-[4-[2-[4-(trifluoromethyl)phenyl]ethylamino]-1-piperidyl]ethyl]pyrazol-4-yl]pyrazolo[1,5-a]pyrimidine-3-carboxamide]",,7.02,8.89
"CN1CCC(n2cc(NC(=O)c3c(N)nn4cccnc34)c(-c3cc(Cl)ccc3OC(F)F)n2)CC1 [Example 184, 2-amino-N-[3-[5-chloro-2-(difluoromethoxy)phenyl]-1-(1-methyl-4-piperidyl)pyrazol-4-yl]pyrazolo[1,5-a]pyrimidine-3-carboxamide]",,8.46,
"NC[C@@H]1CCCN1C(=O)Cn1cc(NC(=O)c2cnn3cccnc23)c(-c2cc(Cl)ccc2OC(F)F)n1 [Example 81, N-[1-[2-[(2S)-2-(aminomethyl)pyrrolidin-1-yl]-2-oxo-ethyl]-3-[5-chloro-2-(difluoromethoxy)phenyl]pyrazol-4-yl]pyrazolo[1,5-a]pyrimidine-3-carboxamide]",,6.60,8.27
"Nc1nn2cccnc2c1C(=O)Nc1cn(CC(=O)N2CC3CNCC3C2)nc1-c1cc(Cl)ccc1OC(F)F (stereo not shown) [Example 10, N-[1-[2-(2,3,3a,4,6,6a-hexahydro-1H-pyrrolo[3,4-c]pyrrol-5-yl)-2-oxo-ethyl]-3-[5-chloro-2-(difluoromethoxy)phenyl]pyrazol-4-yl]-2-amino-pyrazolo[1,5-a]pyrimidine-3-carboxamide]",9.49,,9.19
"O=C(Nc1cn(CC(=O)N2CCN3CCCCC3C2)nc1-c1cc(Cl)ccc1OC(F)F)c1cnn2cccnc12 (stereo not shown) [Example 241, N-[1-[2-(1,3,4,6,7,8,9,9a-octahydropyrido[1,2-a]pyrazin-2-yl)-2-oxo-ethyl]-3-[5-chloro-2-(difluoromethoxy)phenyl]pyrazol-4-yl]pyrazolo[1,5-a]pyrimidine-3-carboxamide]",8.90,,9.06
"CN1C[C@H]2C[C@@H]1CN2C(=O)Cn1cc(NC(=O)c2c(N)nn3cccnc23)c(-c2cc(Cl)ccc2OC(F)F)n1 [Example 252, 2-amino-N-[3-[5-chloro-2-(difluoromethoxy)phenyl]-1-[2-[(1R,4R)-5-methyl-2,5-diazabicyclo[2.2.1]heptan-2-yl]-2-oxo-ethyl]pyrazol-4-yl]pyrazolo[1,5-a]pyrimidine-3-carboxamide]",,7.37,

# Second part, the molecule after the results:
pKi [1],pEC50 [2],pKi [3],Structure (SMILES)
,8.26,9.31,"O=C(Nc1cn(CC(=O)N2CCC[C@H]2CO)nc1-c1cc(Cl)ccc1OC(F)F)c1cnn2cccnc12 [Example 268, N-[3-[5-chloro-2-(difluoromethoxy)phenyl]-1-[2-[(2S)-2-(hydroxymethyl)pyrrolidin-1-yl]-2-oxo-ethyl]pyrazol-4-yl]pyrazolo[1,5-a]pyrimidine-3-carboxamide]"
9.12,,9.49,"N#Cc1ccc(N2CCN(C(=O)Cn3cc(NC(=O)c4cnn5cccnc45)c(-c4cc(Cl)ccc4OC(F)F)n3)CC2)cc1 [Example 237, N-[3-[5-chloro-2-(difluoromethoxy)phenyl]-1-[2-[4-(4-cyanophenyl)piperazin-1-yl]-2-oxo-ethyl]pyrazol-4-yl]pyrazolo[1,5-a]pyrimidine-3-carboxamide]"
8.91,,9.24,"CN1CCN(C(=O)Cn2cc(NC(=O)c3cnn4cccnc34)c(-c3cc(Cl)ccc3OC(F)F)n2)C[C@@H]1CO [Example 234, N-[3-[5-chloro-2-(difluoromethoxy)phenyl]-1-[2-[(3R)-3-(hydroxymethyl)-4-methyl-piperazin-1-yl]-2-oxo-ethyl]pyrazol-4-yl]pyrazolo[1,5-a]pyrimidine-3-carboxamide]"
,7.93,9.26,"Nc1nn2cccnc2c1C(=O)Nc1cn(C2CCN(CCCC(=O)N3CCOCC3)CC2)nc1-c1cc(Cl)ccc1OC(F)F [Example 147, 2-amino-N-[3-[5-chloro-2-(difluoromethoxy)phenyl]-1-[1-(4-morpholino-4-oxo-butyl)-4-piperidyl]pyrazol-4-yl]pyrazolo[1,5-a]pyrimidine-3-carboxamide]"
9.34,,9.33,"CS(=O)(=O)N1CCC(CN2C[C@@H]3CN(C(=O)Cn4cc(NC(=O)c5cnn6cccnc56)c(-c5cc(Cl)ccc5OC(F)F)n4)C[C@@H]3C2)CC1 [Example 34, N-[1-[2-[(3aR,6aS)-2-[(1-methylsulfonyl-4-piperidyl)methyl]-1,3,3a,4,6,6a-hexahydropyrrolo[3,4-c]pyrrol-5-yl]-2-oxo-ethyl]-3-[5-chloro-2-(difluoromethoxy)phenyl]pyrazol-4-yl]pyrazolo[1,5-a]pyrimidine-3-carboxamide]"
9.66,,9.46,"COCCN1CCN(C(=O)Cn2cc(NC(=O)c3c(N)nn4cccnc34)c(-c3cc(Cl)ccc3OC(F)F)n2)CC1 [Example 245, 2-amino-N-[3-[5-chloro-2-(difluoromethoxy)phenyl]-1-[2-[4-(2-methoxyethyl)piperazin-1-yl]-2-oxo-ethyl]pyrazol-4-yl]pyrazolo[1,5-a]pyrimidine-3-carboxamide]"
9.44,,9.31,"CN1CCN(C(=O)Cn2cc(NC(=O)c3c(N)nn4cccnc34)c(-c3cc(Cl)ccc3OC(F)F)n2)CC1 [Example 243, 2-amino-N-[3-[5-chloro-2-(difluoromethoxy)phenyl]-1-[2-(4-methylpiperazin-1-yl)-2-oxo-ethyl]pyrazol-4-yl]pyrazolo[1,5-a]pyrimidine-3-carboxamide]"
